# Experimental data from ChEMBL document CHEMBL1201862, “PubChem BioAssay data set” (2004).
#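 Cultured in 96-well plates, cells were exposed to test compound for 48 hours across five concentrations. Abbreviation: GI50, concentration required for 50% inhibition of growth.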 Calls of active or inactive are those of the source. Cut-off read from the data, not from the text of the source: active = GI50 up to about 1.1 µM and inactive = higher.
# Columns and labels:
# Assay in all cases: growth of human tumour cells (NCI), 48 h
# MDA-MB-231 = tested on: MDA-MB-231
# HCT-116 = tested on: HCT-116
# KM12 = tested on: KM12
# OVCAR-4 = tested on: OVCAR-4
# SR = tested on: SR
# DU-145 = tested on: DU-145
# K562 = tested on: K562
# MOLT-4 = tested on: MOLT-4
# EKVX = tested on: EKVX
# HOP-62 = tested on: HOP-62
# SF-295 = tested on: SF-295
# M14 = tested on: M14
# IGROV-1 = tested on: IGROV-1
# SF-539 = tested on: SF-539
# MDA-MB-435 = tested on: MDA-MB-435
# SF-268 = tested on: SF-268
# OVCAR-3 = tested on: OVCAR-3
# RPMI-8226 = tested on: RPMI-8226
# HL-60 = tested on: HL-60
# U-251 = tested on: U-251
# HT-29 = tested on: HT-29
# SK-MEL-28 = tested on: SK-MEL-28
# UO-31 = tested on: UO-31
# NCI-H522 = tested on: NCI-H522
# SNB-19 = tested on: SNB-19
# CAKI-1 = tested on: CAKI-1
# SW-620 = tested on: SW-620
# SK-OV-3 = tested on: SK-OV-3
# 786-0 = tested on: 786-0
# SK-MEL-2 = tested on: SK-MEL-2
# MCF7 = tested on: MCF7
# RXF 393 = tested on: RXF 393
# ACHN = tested on: ACHN
# UACC-257 = tested on: UACC-257
# PC-3 = tested on: PC-3
# MDA-N = tested on: MDA-N
# A498 = tested on: A498
# HOP-92 = tested on: HOP-92
# CCRF-CEM = tested on: CCRF-CEM
# NCI-H23 = tested on: NCI-H23
# HCT-15 = tested on: HCT-15
# UACC-62 = tested on: UACC-62
# A549 = tested on: A549
# NCI-H460 = tested on: NCI-H460
# LOX IMVI = tested on: LOX IMVI
# T47D = tested on: T47D
# COLO 205 = tested on: COLO 205
# Hs-578T = tested on: Hs-578T
# NCI/ADR-RES = tested on: NCI/ADR-RES
# OVCAR-5 = tested on: OVCAR-5
# TK-10 = tested on: TK-10
# OVCAR-8 = tested on: OVCAR-8
# BT-549 = tested on: BT-549
# Malme-3M = tested on: Malme-3M
# SNB-75 = tested on: SNB-75
# SN12C = tested on: SN12C
# NCI-H226 = tested on: NCI-H226
# SK-MEL-5 = tested on: SK-MEL-5
# HCC 2998 = tested on: HCC 2998
structure (smiles),measurement,setting,value
O=C(O)c1ccccc1NCn1c(=S)sc2ccccc21,GI50,MDA-MB-231,51.8 µM (inactive)
same,GI50,HCT-116,40.7 µM (inactive)
same,GI50,KM12,63 µM (inactive)
same,GI50,OVCAR-4,56 µM (inactive)
same,GI50,SR,29.6 µM (inactive)
same,GI50,DU-145,37.2 µM (inactive)
same,GI50,K562,> 100 µM (inactive)
same,GI50,MOLT-4,35.1 µM (inactive)
same,GI50,EKVX,> 100 µM (inactive)
same,GI50,HOP-62,45.1 µM (inactive)
same,GI50,SF-295,45.6 µM (inactive)
same,GI50,M14,> 100 µM (inactive)
same,GI50,IGROV-1,57.4 µM (inactive)
same,GI50,SF-539,18.3 µM (inactive)
same,GI50,MDA-MB-435,83 µM (inactive)
same,GI50,SF-268,45.5 µM (inactive)
same,GI50,OVCAR-3,30.6 µM (inactive)
same,GI50,RPMI-8226,32.3 µM (inactive)
same,GI50,HL-60,19.6 µM (inactive)
same,GI50,U-251,47.3 µM (inactive)
same,GI50,HT-29,59.8 µM (inactive)
same,GI50,SK-MEL-28,> 100 µM (inactive)
same,GI50,UO-31,51.2 µM (inactive)
same,GI50,NCI-H522,27 µM (inactive)
same,GI50,SNB-19,76.7 µM (inactive)
same,GI50,CAKI-1,> 100 µM (inactive)
same,GI50,SW-620,36 µM (inactive)
same,GI50,SK-OV-3,> 100 µM (inactive)
same,GI50,786-0,54.3 µM (inactive)
same,GI50,SK-MEL-2,> 100 µM (inactive)
same,GI50,MCF7,22.4 µM (inactive)
same,GI50,RXF 393,> 100 µM (inactive)
same,GI50,ACHN,35.6 µM (inactive)
same,GI50,UACC-257,31.8 µM (inactive)
same,GI50,PC-3,45.6 µM (inactive)
same,GI50,MDA-N,> 100 µM (inactive)
same,GI50,A498,> 100 µM (inactive)
same,GI50,HOP-92,> 100 µM (inactive)
same,GI50,CCRF-CEM,23.4 µM (inactive)
same,GI50,NCI-H23,28.2 µM (inactive)
same,GI50,HCT-15,66.5 µM
same,GI50,UACC-62,44.3 µM (inactive)
same,GI50,A549,68.7 µM (inactive)
same,GI50,NCI-H460,21.9 µM (inactive)
same,GI50,LOX IMVI,20 µM (inactive)
same,GI50,T47D,37.1 µM (inactive)
same,GI50,COLO 205,25.7 µM (inactive)
same,GI50,Hs-578T,> 100 µM (inactive)
same,GI50,NCI/ADR-RES,> 100 µM (inactive)
same,GI50,OVCAR-5,> 100 µM (inactive)
same,GI50,TK-10,94.6 µM (inactive)
same,GI50,OVCAR-8,> 100 µM (inactive)
same,GI50,BT-549,> 100 µM (inactive)
same,GI50,Malme-3M,35.5 µM (inactive)
same,GI50,SNB-75,> 100 µM (inactive)
same,GI50,SN12C,35.1 µM (inactive)
N/C(=N\c1c([N+](=O)[O-])cnc2ccccc12)N1CCOCC1,GI50,MDA-MB-231,> 100 µM (inactive)
same,GI50,HCT-116,> 100 µM (inactive)
same,GI50,KM12,> 100 µM (inactive)
same,GI50,OVCAR-4,> 100 µM (inactive)
same,GI50,SR,> 100 µM (inactive)
same,GI50,DU-145,> 100 µM (inactive)
same,GI50,K562,> 100 µM (inactive)
same,GI50,MOLT-4,> 100 µM (inactive)
same,GI50,EKVX,> 100 µM (inactive)
same,GI50,HOP-62,> 100 µM (inactive)
same,GI50,SF-295,86.9 µM (inactive)
same,GI50,M14,> 100 µM (inactive)
same,GI50,IGROV-1,> 100 µM (inactive)
same,GI50,SF-539,> 100 µM (inactive)
same,GI50,MDA-MB-435,> 100 µM (inactive)
same,GI50,SF-268,> 100 µM (inactive)
same,GI50,OVCAR-3,> 100 µM (inactive)
same,GI50,RPMI-8226,> 100 µM (inactive)
same,GI50,HL-60,> 100 µM (inactive)
same,GI50,U-251,> 100 µM (inactive)
same,GI50,HT-29,> 100 µM (inactive)
same,GI50,SK-MEL-28,> 100 µM (inactive)
same,GI50,UO-31,> 100 µM (inactive)
same,GI50,NCI-H522,> 100 µM (inactive)
same,GI50,SNB-19,> 100 µM (inactive)
same,GI50,CAKI-1,> 100 µM (inactive)
same,GI50,SW-620,> 100 µM (inactive)
same,GI50,SK-OV-3,> 100 µM (inactive)
same,GI50,786-0,> 100 µM (inactive)
same,GI50,SK-MEL-2,> 100 µM (inactive)
same,GI50,NCI-H226,> 100 µM (inactive)
same,GI50,MCF7,> 100 µM (inactive)
same,GI50,ACHN,> 100 µM (inactive)
same,GI50,UACC-257,> 10 µM (inactive)
same,GI50,PC-3,> 100 µM (inactive)
same,GI50,MDA-N,> 100 µM (inactive)
same,GI50,A498,> 100 µM (inactive)
same,GI50,SK-MEL-5,> 100 µM (inactive)
same,GI50,CCRF-CEM,> 100 µM (inactive)
same,GI50,NCI-H23,> 100 µM (inactive)
same,GI50,HCT-15,> 100 µM
same,GI50,UACC-62,> 100 µM (inactive)
same,GI50,A549,> 100 µM (inactive)
same,GI50,NCI-H460,> 100 µM (inactive)
same,GI50,LOX IMVI,> 100 µM (inactive)
same,GI50,T47D,> 100 µM (inactive)
same,GI50,COLO 205,> 100 µM (inactive)
same,GI50,Hs-578T,> 100 µM (inactive)
same,GI50,NCI/ADR-RES,95.9 µM (inactive)
same,GI50,OVCAR-5,> 100 µM (inactive)
same,GI50,TK-10,> 100 µM (inactive)
same,GI50,OVCAR-8,> 100 µM (inactive)
same,GI50,BT-549,> 100 µM (inactive)
same,GI50,SNB-75,> 100 µM (inactive)
same,GI50,SN12C,> 100 µM (inactive)
COC(=O)C1(OC(=O)Sc2ccccc2)CCN(C)CC1,GI50,MDA-MB-231,16.9 µM (inactive)
same,GI50,HCT-116,14.9 µM (inactive)
same,GI50,KM12,10.9 µM (inactive)
same,GI50,OVCAR-4,23.2 µM (inactive)
same,GI50,SR,10.8 µM (inactive)
same,GI50,DU-145,23.8 µM (inactive)
same,GI50,HCC 2998,28.6 µM (inactive)
same,GI50,K562,22.4 µM (inactive)
same,GI50,MOLT-4,6.68 µM (inactive)
same,GI50,EKVX,9.1 µM (inactive)
same,GI50,HOP-62,32.1 µM (inactive)
same,GI50,SF-295,25.2 µM (inactive)
same,GI50,M14,15.5 µM (inactive)
same,GI50,IGROV-1,4.75 µM (inactive)
same,GI50,SF-539,10.8 µM (inactive)
same,GI50,MDA-MB-435,13.8 µM (inactive)
same,GI50,SF-268,18.4 µM (inactive)
same,GI50,OVCAR-3,11 µM (inactive)
same,GI50,RPMI-8226,6.38 µM (inactive)
same,GI50,HL-60,5.96 µM (inactive)
same,GI50,U-251,12.1 µM (inactive)
same,GI50,HT-29,21.4 µM (inactive)
same,GI50,SK-MEL-28,27.9 µM (inactive)
same,GI50,UO-31,3.79 µM (inactive)
same,GI50,NCI-H522,16.2 µM (inactive)
same,GI50,SNB-19,28.3 µM (inactive)
same,GI50,CAKI-1,4.95 µM (inactive)
same,GI50,SW-620,21.7 µM (inactive)
same,GI50,SK-OV-3,33.3 µM (inactive)
same,GI50,786-0,19 µM (inactive)
same,GI50,SK-MEL-2,58.3 µM (inactive)
same,GI50,NCI-H226,13.6 µM (inactive)
same,GI50,MCF7,> 52 µM (inactive)
same,GI50,RXF 393,14.3 µM (inactive)
same,GI50,ACHN,15.7 µM (inactive)
same,GI50,UACC-257,20.2 µM (inactive)
same,GI50,PC-3,7.57 µM (inactive)
same,GI50,MDA-N,17.8 µM (inactive)
same,GI50,A498,21.8 µM (inactive)
same,GI50,SK-MEL-5,22.6 µM (inactive)
same,GI50,CCRF-CEM,1.84 µM (inactive)
same,GI50,NCI-H23,14.1 µM (inactive)
same,GI50,HCT-15,34.9 µM
same,GI50,UACC-62,21.3 µM (inactive)
same,GI50,A549,11.4 µM (inactive)
same,GI50,NCI-H460,23.6 µM (inactive)
same,GI50,LOX IMVI,8.07 µM (inactive)
same,GI50,T47D,31.3 µM (inactive)
same,GI50,COLO 205,9.82 µM (inactive)
same,GI50,Hs-578T,21.1 µM (inactive)
same,GI50,NCI/ADR-RES,13.1 µM (inactive)
same,GI50,OVCAR-5,35.3 µM (inactive)
same,GI50,TK-10,41.3 µM (inactive)
same,GI50,OVCAR-8,16.7 µM (inactive)
same,GI50,BT-549,1.5 µM (inactive)
same,GI50,Malme-3M,63.7 µM (inactive)
same,GI50,SNB-75,16.8 µM (inactive)
same,GI50,SN12C,3.9 µM (inactive)
